According to PMC6270602 (Molecules, 2013):
Counter-ions that a name gives are not always drawn. Like-named read-outs stand apart in the source and are kept apart here.

Columns and labels:
[1] = target: human recombinant AChE (hAChE; E.C. 3.1.1.7) (Homo sapiens, UniProt P22303); assay: biochemical; settings: for IC50: human recombinant AChE, Ellman's method, phosphate buffer pH 7.4, mean of three independent determinations ± SD; for SI (selectivity index for hAChE): ratio of IC50 hBChE towards IC50 hAChE
[2] = target: human plasmatic BChE (hBChE; E.C. 3.1.1.8) (Homo sapiens, UniProt P06276); assay: biochemical
[3] = human plasmatic BChE, Ellman's method, phosphate buffer pH 7.4, mean of three independent determinations ± SD, read-out: IC50 (µM) ± SD hBChE

human recombinant AChE (hAChE; E.C. 3.1.1.7), sequence (P22303 32-614): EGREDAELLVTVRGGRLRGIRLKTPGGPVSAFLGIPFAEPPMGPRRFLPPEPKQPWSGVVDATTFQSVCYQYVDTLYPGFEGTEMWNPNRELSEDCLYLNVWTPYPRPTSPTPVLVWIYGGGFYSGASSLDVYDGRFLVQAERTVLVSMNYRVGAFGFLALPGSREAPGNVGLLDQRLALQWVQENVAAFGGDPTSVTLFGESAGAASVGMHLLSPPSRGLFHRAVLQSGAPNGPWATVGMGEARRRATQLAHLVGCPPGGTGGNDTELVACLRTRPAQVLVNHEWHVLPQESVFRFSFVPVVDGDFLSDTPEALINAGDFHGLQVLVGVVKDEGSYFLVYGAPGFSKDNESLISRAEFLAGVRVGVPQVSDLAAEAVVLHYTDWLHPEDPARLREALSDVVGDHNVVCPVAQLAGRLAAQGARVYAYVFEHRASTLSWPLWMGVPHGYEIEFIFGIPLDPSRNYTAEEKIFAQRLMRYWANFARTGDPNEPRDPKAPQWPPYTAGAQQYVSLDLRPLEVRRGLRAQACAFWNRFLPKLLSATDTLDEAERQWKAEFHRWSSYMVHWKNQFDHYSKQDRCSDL
human plasmatic BChE (hBChE; E.C. 3.1.1.8), sequence (P06276 29-602): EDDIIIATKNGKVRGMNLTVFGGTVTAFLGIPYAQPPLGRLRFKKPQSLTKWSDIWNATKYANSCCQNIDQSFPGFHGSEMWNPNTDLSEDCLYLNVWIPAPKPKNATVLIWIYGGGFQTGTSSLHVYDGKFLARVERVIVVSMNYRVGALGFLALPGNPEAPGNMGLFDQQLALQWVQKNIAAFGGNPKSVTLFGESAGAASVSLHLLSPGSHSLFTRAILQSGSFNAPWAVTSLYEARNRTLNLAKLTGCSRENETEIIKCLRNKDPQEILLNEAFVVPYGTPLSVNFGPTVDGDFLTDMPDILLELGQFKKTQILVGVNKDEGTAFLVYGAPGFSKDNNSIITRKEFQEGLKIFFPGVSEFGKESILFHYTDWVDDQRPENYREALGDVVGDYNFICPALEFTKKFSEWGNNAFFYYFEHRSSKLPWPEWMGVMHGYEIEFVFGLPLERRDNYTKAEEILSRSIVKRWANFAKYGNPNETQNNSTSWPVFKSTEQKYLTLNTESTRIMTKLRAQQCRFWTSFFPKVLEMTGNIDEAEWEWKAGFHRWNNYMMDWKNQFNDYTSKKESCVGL

COc1ccc2nc3c(c(NCCN)c2c1)CCCC3 [Compound 3, N-(7-Methoxy-1,2,3,4-tetrahydroacridin-9-yl)ethane-1,2-diamine]
IC50 [1]: 5.32 ± 1.04 µM | SI (selectivity index for hAChE) [1]: 12.1 | IC50 [2, 3]: 64.4 ± 10.8 µM

COc1ccc2nc3c(c(NCCCN)c2c1)CCCC3 [Compound 4, N-(7-Methoxy-1,2,3,4-tetrahydroacridin-9-yl)propane-1,3-diamine]
IC50 [1]: 1.93 ± 0.38 µM | SI (selectivity index for hAChE) [1]: 25.8 | IC50 [2, 3]: 49.8 ± 8.31 µM

COc1ccc2nc3c(c(NCCCCN)c2c1)CCCC3 [Compound 5, N-(7-Methoxy-1,2,3,4-tetrahydroacridin-9-yl)butane-1,4-diamine]
IC50 [1]: 1.42 ± 0.28 µM | SI (selectivity index for hAChE) [1]: 6.5 | IC50 [2, 3]: 9.22 ± 1.54 µM

COc1ccc2nc3c(c(NCCCCCN)c2c1)CCCC3 [Compound 6, N-(7-Methoxy-1,2,3,4-tetrahydroacridin-9-yl)pentane-1,5-diamine]
IC50 [1]: 3.44 ± 0.67 µM | SI (selectivity index for hAChE) [1]: 8.6 | IC50 [2, 3]: 29.6 ± 4.95 µM

COc1ccc2nc3c(c(NCCCCCCN)c2c1)CCCC3 [Compound 7, N-(7-Methoxy-1,2,3,4-tetrahydroacridin-9-yl)hexane-1,6-diamine]
IC50 [1]: 0.21 ± 0.04 µM | SI (selectivity index for hAChE) [1]: 51.6 | IC50 [2, 3]: 10.8 ± 1.81 µM

COc1ccc2nc3c(c(NCCCCCCCN)c2c1)CCCC3 [Compound 8, N-(7-Methoxy-1,2,3,4-tetrahydroacridin-9-yl)heptane-1,7-diamine]
IC50 [1]: 0.86 ± 0.17 µM | SI (selectivity index for hAChE) [1]: 8.4 | IC50 [2, 3]: 7.26 ± 1.21 µM

COc1ccc2nc3c(c(NCCCCCCCCN)c2c1)CCCC3 [Compound 9, N-(7-Methoxy-1,2,3,4-tetrahydroacridin-9-yl)octane-1,8-diamine]
IC50 [1]: 0.47 ± 0.09 µM | SI (selectivity index for hAChE) [1]: 21.4 | IC50 [2, 3]: 10.1 ± 1.68 µM

S=C=NC12CC3CC(CC(C3)C1)C2 [Compound 10, 1-Adamantyl isothiocyanate, reference compound]
IC50 [1]: 25 ± 4.87 µM | SI (selectivity index for hAChE) [1]: 3.9 | IC50 [2]: 96.9 ± 16.2 µM

COc1ccc2nc3c(c(NCCNC(=S)NC45CC6CC(CC(C6)C4)C5)c2c1)CCCC3 [Compound 11, 1-Adamantyl-3-(2-(7-methoxy-1,2,3,4-tetrahydroacridin-9-yl-amino)ethyl)thiourea 2,3-dihydroxysuccinate]
IC50 [1]: 5.02 ± 0.98 µM | SI (selectivity index for hAChE) [1]: 1.2 | IC50 [2, 3]: 6.02 ± 1.01 µM

COc1ccc2nc3c(c(NCCCNC(=S)NC45CC6CC(CC(C6)C4)C5)c2c1)CCCC3 [Compound 12]
IC50 [1]: 0.53 ± 0.1 µM | SI (selectivity index for hAChE) [1]: 2.6 | IC50 [2, 3]: 1.39 ± 0.23 µM

COc1ccc2nc3c(c(NCCCCNC(=S)NC45CC6CC(CC(C6)C4)C5)c2c1)CCCC3 [Compound 13]
IC50 [1]: 2.04 ± 0.39 µM | SI (selectivity index for hAChE) [1]: 0.5 | IC50 [2, 3]: 0.98 ± 0.16 µM

COc1ccc2nc3c(c(NCCCCCNC(=S)NC45CC6CC(CC(C6)C4)C5)c2c1)CCCC3 [Compound 14]
IC50 [1]: 0.47 ± 0.09 µM | SI (selectivity index for hAChE) [1]: 0.2 | IC50 [2, 3]: 0.11 ± 0.02 µM

COc1ccc2nc3c(c(NCCCCCCNC(=S)NC45CC6CC(CC(C6)C4)C5)c2c1)CCCC3 [Compound 15]
IC50 [1]: 2.09 ± 0.4 µM | SI (selectivity index for hAChE) [1]: 0.2 | IC50 [2, 3]: 0.33 ± 0.05 µM

COc1ccc2nc3c(c(NCCCCCCCNC(=S)NC45CC6CC(CC(C6)C4)C5)c2c1)CCCC3 [Compound 16, 1-Adamantyl-3-(2-(7-methoxy-1,2,3,4-tetrahydroacridin-9-yl-amino)heptyl)thiourea 2,3-dihydroxy-succinate]
IC50 [1]: 3.47 ± 0.67 µM | SI (selectivity index for hAChE) [1]: 0.04 | IC50 [2, 3]: 0.15 ± 0.02 µM

COc1ccc2nc3c(c(NCCCCCCCCNC(=S)NC45CC6CC(CC(C6)C4)C5)c2c1)CCCC3 [Compound 17]
IC50 [1]: 1.62 ± 0.31 µM | SI (selectivity index for hAChE) [1]: 0.2 | IC50 [2, 3]: 0.26 ± 0.04 µM

NC12CC3CC(CC(C3)C1)C2 [amantadine, 1-adamantylamine hydrochloride, reference compound]
IC50 [2, 3]: 103 ± 17.1 µM
